Data: US10844049B2, “GLP-1R agonists and uses thereof” (QILU REGOR THERAPEUTICS INC., priority 2018, dated 2020)

Tests used:
GLP1R [1] = target: T1, GLP1R (Homo sapiens, UniProt P43220); assay: β-Arrestin-mediated GLP1R internalization assay (PathHunter engineered U2OS cells); type: cell-based; design: host or cells: PathHunter engineered U2OS cells; settings: averaged Bmax, percentage of control GLP-1 (7-37), highest concentration tested
Excerpt: A similar assay can also be used to assess the extent of signal attenuation due to GLP-1R internalization (the β-Arrestin Internalization Assay). In this assay, activated GLP1R Internalization cells were engineered to co-express an untagged GLP1R, Enzyme Acceptor (EA) tagged β-Arrestin, and a ProLink™ (PK) tag localized to the endosomes. Activation of the GLP1R induces β-Arrestin recruitment, which leads to internalization of the Receptor/Arrestin-EA complex in PK-tagged endosomes. This forces complementation of the two β-galactosidase enzyme fragments (EA and PK) to form a functional enzyme that hydrolyzes substrate to generate a chemiluminescent signal. These cells have been modified to prevent long term propagation and expansion using a proprietary compound that has no apparent effect on assay performance.
Specifically, PathHunter engineered U2OS cells from the assay kit (Cat #93-0724E3CP0L) were plated at a density of 2000 cells/20 μL/well in a 384-well white/clear bottom plates (Greiner Cat #781098). Frozen cells were quickly thawed and 10 mL of cell plating medium (provided by the kit) was added to thawed cells. Cells were stored in a 37° C. incubator and kept for approximately 48 hours until ready for the assay.
(§1) Reference and test compounds were dissolved in 100% DMSO. 5× concentration of an agonist was prepared in serum free DMEM (Thermo Cat #11965). 5 μL of this solution was added to 20 μL cell medium in assay plate for a final top concentration of 10 μM. Plates were incubated at 37° C. for 180 min.
(§2) Following 180 min incubation, detection reagents were made up by combining 1 part Galacton Star Substrate with 5 parts Emerald II™ Solution, and 19 parts of PathHunter Cell Assay Buffer, respectively. 12.5 μL detection reagent was added to each well. The plates were then incubated at room temperature for 60 min. Plates were then read on Envision for 0.1 sec/well.
(§3) EC50 determinations were made from agonist dose-response curves analyzed with a curve fitting program using a 4-parameter logistic dose response equation.

GLP1R [2] = target: T1, GLP1R; assay: GLP-1R/β-Arrestin recruitment assay (PathHunter eXpress GLP1R CHO-K1 β-Arrestin GPCR Assay); type: cell-based; design: host or cells: PathHunter CHO-K1 GLP1R β-Arrestin cells; settings: averaged Bmax, percentage of control GLP-1 (7-37), highest concentration tested
Excerpt: GLP-1R agonist activity with respect to β-arrestin recruitment can be determined with a cell-based functional assay using PathHuntcr eXpress GLP1R CHO-K1 β-Arrestin GPCR Assay kit (DiscovcrX Cat #93-0300E2CP0M).
The PathHunter β-Arrestin GPCR assay technology utilizes a β-galactosidase (β-gal) enzyme that is split into two fragments, the smaller Enzyme Donor (ED) and the larger Enzyme Acceptor (EA). These fragments can be fused to two proteins that may interact with each other, such as EA-β-Arrestin and ED-GLP-1R. The fusions can be stably expressed in a test cell line, such as the PathHunter CHO-K1 GLP1R β-Arrestin cells described below.
Independently, these fragment fusions have no β-gal activity; however, in solution or in a living cell, they can be brought together and complement to form an active β-gal enzyme due to the interaction between the fused proteins, thus generating a chemiluminescent signal in the presence of a suitable β-gal substrate.
In this experiment, PathHunter CHO-K1 GLP1R β-Arrestin cells from the assay kit were plated at a density of 1000 or 2000 cells/20 μl/well in a 384-well white/clear bottom plates (Greiner Cat #781098). Frozen cells were quickly thawed and 10 mL of cell plating medium (provided by the kit) was added to thawed cells. Cells were stored in a 37° C. incubator under 5% CO2 and kept for approximately 48 hours until ready to ran the assay.
as §1, with “Plates were then incubated at” for “Plates were incubated at”, “37° C. under 5% CO2 for 90” for “37° C. for 180”, “CO2 for 90 min.” for “C. for 180 min.”
as §2, with “90” for “180”, “temperature in dark” for “temperature”
as §3
Cells were plated at a density of 1000 or 2000 cells/20 μL/well. Frozen cells were quickly thawed and added to 10 mL of cell plating medium. Cells were stored in a 37° C. incubator under 5% CO2 and left for approximately 48 hours until ready to run the assay.
• 1) Reference agonist compound GLP1 (7-37): dissolved with DMSO to make 1 mM stock solutions, aliquoted and stored at −80° C. • 2) Test compounds (such as the compounds of the invention) came solubilized in 100% DMSO.
Prepare 10× concentration of an agonist in serum free DMEM, and add all solutions into the compound plate. 2.5 μL of this solution was added to 20 μL cell medium in assay plate for a final top concentration of 10 μM. Plates were incubated at 37° C. under 5% CO2 for 30 min. An additional 2.5 μL of Buffer was added to the entire plate for agonist mode and incubated at 37° C. for another 90 min.
Following 90 min incubation, detection reagents were made up as described. 12.5 μL was added to all wells. The plates were then incubated at room temperature in dark for 60 min. Plates were then read on Envision for 0.1 sec/well.
Data analysis: GraphPad Prism 6 was used for establishment of progression curve. EC50S or IC50s were determined by 4-parameter logistic dose response equation.

T1 sequence (P43220 24-463): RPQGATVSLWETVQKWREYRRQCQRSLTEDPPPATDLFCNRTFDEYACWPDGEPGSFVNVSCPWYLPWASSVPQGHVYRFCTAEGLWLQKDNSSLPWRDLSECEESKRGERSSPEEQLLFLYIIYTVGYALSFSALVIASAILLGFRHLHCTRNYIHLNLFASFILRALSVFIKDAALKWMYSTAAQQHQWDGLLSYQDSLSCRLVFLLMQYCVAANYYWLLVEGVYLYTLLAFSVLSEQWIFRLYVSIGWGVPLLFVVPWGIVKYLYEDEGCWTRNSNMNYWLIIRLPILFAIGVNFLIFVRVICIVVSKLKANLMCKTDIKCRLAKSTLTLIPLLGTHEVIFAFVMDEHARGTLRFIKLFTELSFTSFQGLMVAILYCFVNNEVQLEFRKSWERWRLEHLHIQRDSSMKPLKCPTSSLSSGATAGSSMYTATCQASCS

| Structure (SMILES) | Bmax (POC) (GLP1R [1]) | Bmax (POC) (GLP1R [2]) |
| --- | --- | --- |
| O=C(O)c1ccc2nc(CN3CC=C(c4cccc(OCc5ccc(Cl)cc5F)c4)CC3)n(C[C@@H]3CCO3)c2c1F [Compound 237, (S)-2-((4-(3-((4-chloro-2-fluorobenzyl)oxy)phenyl)-3,6-dihydropyridin-1(2H)-yl)methyl)-7-fluoro-1-(oxetan-2-ylmethyl)-1H-benzo[d]imidazole-6-carboxylic acid] | 17.7 ± 1.20 POC | 37.9 ± 4.66 POC |
| N#Cc1ccc(COc2cccc(C3=CCN(Cc4nc5ccc(C(=O)O)cc5n4C[C@@H]4CCO4)CC3)n2)c(F)c1 [Compound 19, (S)-2-((4-(6-(4-cyano-2-fluorobenzyloxy)pyridin-2-yl)-5,6-dihydropyridin-1(2H)-yl)methyl)-1-(oxetan-2-ylmethyl)-1 h-benzo[d]imidazole-6-carboxylic add] | 20.1 POC | 26.0 ± 2.78 POC |
| O=C(O)c1ccc2nc(CN3CC=C(c4cccc(OCc5ccc(Cl)cc5F)c4)CC3)n(C[C@@H]3CCO3)c2c1 [Compound 28, (S)-2-((4-(3-((4-chloro-2-fluorobenzyl)oxy)phenyl)-3,6-dihydropyridin-1(2H)-yl)methyl)-1-(oxetan-2-ylmethyl)-1 h-benzo[d]imidazole-6-carboxylic add] | 17.6 ± 6.62 POC | 28.5 ± 6.36 POC |
| O=C(O)c1ccc2nc(CN3CCC(c4ccnc(OCc5ccc(Cl)cc5F)n4)CC3)n(C[C@@H]3CCO3)c2c1 [Compound 18, (S)-2-((4-(2-((4-chloro-2-fluorobenzyl)oxy)pyrimidin-4-yl)piperidin-1-yl)methyl)-1-(oxetan-2-ylmethyl)-1H-benzo[d]imidazole-6-carboxylic acid] | 21.3 ± 3.47 POC | 26.2 ± 1.55 POC |
| O=C(O)c1ccc2nc(CN3CC=C(c4cccc(OCc5ccc(-n6ccnc6)cc5)n4)CC3)n(C[C@@H]3CCO3)c2n1 [Compound 245, (S)-2-((4-(6-(4-(1H-imidazol-1-yl)benzyloxy)pyridin-2-yl)-5,6-dihydropyridin-1(2H)-yl)methyl)-3-(oxetan-2-ylmethyl)-3H-imidazo[4,5-b]pyridine-5-carboxylic add] | 27.7 POC | 38.0 ± 6.42 POC |
